Results as given in article PMC10656490, “Sequence-based prediction of the intrinsic solubility of peptides containing non-natural amino acids” (Nature Communications, 2023).
Where two headings read alike, the source gives them in different places. Where a SMILES comes first, the peptide text is derived from it. [ ]: non-standard residue; d: D form. Cha = N[C@@H](CC1CCCCC1)C(=O)O; Cit = NC(=O)NCCC[C@H](N)C(=O)O; Nle = CCCC[C@H](N)C(=O)O; Aib = CC(C)(N)C(=O)O

Assays:
[1] = Ammonium sulphate (AMS) precipitation relative solubility assay (18 A variants); type: physicochemical; settings: for solubility of 18 A variants (in words): pH 7
Method: (§1) Relative solubility was measured using a recently developed PEG precipitation assay. For all PYY variants the standard assay worked well, and no changes had to be implemented (Fig. 2a). […] Moreover, to ensure that the results stemming from the AMS assay are consistent and reliable, we performed the 18 A experiments twice independently on different days. The results confirmed that they are indeed replicable, and we were therefore confident to use them for the validation of our approach (Supplementary Fig. 3). […] Even at final concentrations of 0.33 mg/mL (instead of 1 mg/mL) most variants remained insoluble. We used ultracentrifugation to determine the relative solubilities of the GLP-1 variants (Table 3). To confirm the reliability of this method we replicated the results on a different day with the same stock solutions (Supplementary Fig. 4).
(§2) Aliquots of 1 mg were prepared from the purified and lyophilised stocks. […] Briefly, a precipitant is titrated in increasing concentration to a fixed concentration of protein to induce precipitation of the protein. The samples are incubated for 48 h at 4° after mixing. The samples are centrifuged and the remaining protein concentration is measured in the supernatant using a plate reader. PYY and 18 A variants were dissolved in 10 mM citrate 10 mM phosphate buffer at pH 7 for a final concentration of 3 mg/mL. The assay was run with 50% 6000 PEG for PYY and with 3.8 M AMS for 18 A. To improve throughput, a multichannel robot was employed to measure several peptides at once with the workflow being kept the same as described previously. […] 120 µL of each sample were centrifuged using an OptimaTLX Ultracentrifuge and spinning for 30 min at 500,000 g at 4 °C. The supernatant was removed, and the peptide concentration was measured using a NanoDrop.

[2] = Solubility by ultracentrifugation (GLP-1 variants); type: physicochemical; settings: for solubility: 10 mM citrate 10 mM phosphate buffer, pH 7, GLP-1 variants, 2 mg/mL in 10 mM citrate 10 mM phosphate pH 7, 30 min 500,000 g 4 °C
Method: as §1, §2

[3] = 18A variants, precipitation midpoint, second run, Figure S3
[4] = source data Supplementary Fig. 4, GLP-1 variants, 2 stands where Table 3 prints S, in mg/mL

Compound | PEG1/2 ([1]; 18A variants, Figure 3b) | Second Run [1, 3] | further results
CC(=O)N[C@@H](CC(=O)O)C(=O)N[C@@H](Cc1c[nH]c2ccccc12)C(=O)N[C@@H](Cc1ccccc1)C(=O)NC(C)(C)C(=O)N[C@@H](C)C(=O)N[C@@H](Cc1ccccc1)C(=O)N[C@@H](Cc1ccc(O)cc1)C(=O)N[C@@H](CC(=O)O)C(=O)N[C@@H](CCCCN)C(=O)N[C@H](C(=O)N[C@@H](C)C(=O)N[C@@H](CCC(=O)O)C(=O)N[C@@H](CCCCN)C(=O)N[C@@H](CC1CCCCC1)C(=O)N[C@@H](CCCCN)C(=O)N[C@@H](CCC(=O)O)C(=O)N[C@@H](C)C(=O)N[C@@H](Cc1ccccc1)C(N)=O)C(C)C [Aib, Cha] (Ac-DWF[Aib]AFYDKVAEK[Cha]KEAF-NH2) | 1.604 | 1.21 | –
CC(=O)N[C@@H](CC(=O)O)C(=O)N[C@@H](Cc1c[nH]c2ccccc12)C(=O)N[C@@H](CC1CCCCC1)C(=O)N[C@@H](CCCCN)C(=O)N[C@@H](C)C(=O)N[C@@H](Cc1ccccc1)C(=O)N[C@@H](Cc1ccc(O)cc1)C(=O)N[C@@H](CC(=O)O)C(=O)N[C@@H](CCCCN)C(=O)N[C@H](C(=O)N[C@@H](CC1CCCCC1)C(=O)N[C@@H](CCC(=O)O)C(=O)N[C@@H](CCCCN)C(=O)N[C@@H](Cc1ccccc1)C(=O)N[C@@H](CCCCN)C(=O)N[C@@H](CCC(=O)O)C(=O)N[C@@H](C)C(=O)N[C@@H](Cc1ccccc1)C(N)=O)C(C)C [Cha, Cha] (Ac-DW[Cha]KAFYDKV[Cha]EKFKEAF-NH2) | 0 | 0 | –
CCCC[C@H](NC(=O)[C@H](CCC(=O)O)NC(=O)[C@H](CCCCN)NC(=O)[C@H](Cc1ccccc1)NC(=O)[C@H](CCCCN)NC(=O)[C@H](CCC(=O)O)NC(=O)[C@H](C)NC(=O)[C@@H](NC(=O)[C@H](CCCCN)NC(=O)[C@H](CC(=O)O)NC(=O)[C@H](Cc1ccc(O)cc1)NC(=O)[C@H](Cc1ccccc1)NC(=O)[C@H](CC1CCCCC1)NC(=O)[C@H](CCCCN)NC(=O)[C@H](Cc1ccccc1)NC(=O)[C@H](Cc1c[nH]c2ccccc12)NC(=O)[C@H](CC(=O)O)NC(C)=O)C(C)C)C(=O)N[C@@H](Cc1ccccc1)C(N)=O [Cha, Nle] (Ac-DWFK[Cha]FYDKVAEKFKE[Nle]F-NH2) | 0 | 0 | –
CCCC[C@H](NC(=O)[C@H](CCC(=O)O)NC(=O)[C@H](C)NC(=O)[C@@H](N)Cc1c[nH]cn1)C(=O)N[C@H](C(=O)N[C@@H](Cc1ccccc1)C(=O)N[C@H](C(=O)N[C@@H](CO)C(=O)N[C@@H](CC(=O)O)C(=O)N[C@H](C(=O)N[C@@H](CO)C(=O)N[C@@H](CO)C(=O)N[C@@H](Cc1ccc(O)cc1)C(=O)N[C@@H](CC(C)C)C(=O)N[C@@H](CCC(=O)O)C(=O)NCC(=O)N[C@@H](CCCNC(N)=O)C(=O)N[C@@H](C)C(=O)N[C@@H](C)C(=O)N[C@@H](CCCCN)C(=O)N[C@@H](CCC(=O)O)C(=O)N[C@@H](Cc1ccccc1)C(=O)N[C@H](C(=O)N[C@@H](C)C(=O)N[C@@H](Cc1c[nH]c2ccccc12)C(=O)N[C@@H](CC(C)C)C(=O)N[C@H](C(=O)N[C@@H](CCCCN)C(=O)NCC(=O)N[C@@H](CCCNC(=N)N)C(N)=O)C(C)C)[C@@H](C)CC)C(C)C)[C@@H](C)O)[C@@H](C)O [Compound 10] (H-HAE[Nle]TFTSDVSSYLEG[Cit]AAKEFIAWLVKGR-NH2; N-terminus assumed) | – | – | solubility ([2]; run 1, read-out: Run 1 solubility (peptide concentration in supernatant)): 150 µg/mL; solubility ([2]; run 2, read-out: Run 2 solubility (peptide concentration in supernatant)): 120 µg/mL; Ultracentrifugation ([2]; GLP1 variants, Figure 3c, in mg/mL): 0.1367; First Run [2, 4]: 0.15; Second Run [2, 4]: 0.1234
CC(=O)N[C@@H](CC(=O)O)C(=O)N[C@@H](Cc1c[nH]c2ccccc12)C(=O)N[C@@H](Cc1ccccc1)C(=O)N[C@@H](CCCCN)C(=O)N[C@@H](C)C(=O)N[C@@H](Cc1ccccc1)C(=O)N[C@@H](Cc1ccc(O)cc1)C(=O)N[C@@H](CC(=O)O)C(=O)N[C@@H](CCCCN)C(=O)N[C@H](C(=O)N[C@@H](C)C(=O)N[C@@H](CCC(=O)O)C(=O)N[C@@H](CCCCN)C(=O)N[C@@H](Cc1ccccc1)C(=O)N[C@@H](CCCCN)C(=O)N[C@@H](CCC(=O)O)C(=O)N[C@@H](C)C(=O)N[C@@H](Cc1ccccc1)C(N)=O)C(C)C [Compound 11, reference compound] (Ac-DWFKAFYDKVAEKFKEAF-NH2) | – | – | PEG1/2 [1]: 1.626; Second Run [1]: 1.058
CC(=O)N[C@@H](CC(=O)O)C(=O)N[C@@H](Cc1c[nH]c2ccccc12)C(=O)N[C@@H](CC1CCCCC1)C(=O)N[C@@H](CCCCN)C(=O)N[C@@H](C)C(=O)N[C@@H](Cc1ccccc1)C(=O)N[C@@H](Cc1ccc(O)cc1)C(=O)N[C@@H](CC(=O)O)C(=O)N[C@@H](CCCCN)C(=O)N[C@H](C(=O)N[C@@H](CC1CCCCC1)C(=O)N[C@@H](CCC(=O)O)C(=O)N[C@@H](CCCCN)C(=O)N[C@@H](Cc1ccccc1)C(=O)N[C@@H](CCCCN)C(=O)N[C@@H](CCC(=O)O)C(=O)N[C@@H](C)C(=O)N[C@@H](Cc1ccccc1)C(N)=O)C(C)C [Compound 17, [ntDAC]W[CHA]KAFYDKV[CHA]EKFKEA[ctFAD]] (Ac-DW[Cha]KAFYDKV[Cha]EKFKEAF-NH2) | – | – | solubility of 18 A variants (in words) [1]: completely insoluble
CCCC[C@H](NC(=O)[C@H](CCC(=O)O)NC(=O)[C@H](CCCCN)NC(=O)[C@H](Cc1ccccc1)NC(=O)[C@H](CCCCN)NC(=O)[C@H](CCC(=O)O)NC(=O)[C@H](C)NC(=O)[C@@H](NC(=O)[C@H](CCCCN)NC(=O)[C@H](CC(=O)O)NC(=O)[C@H](Cc1ccc(O)cc1)NC(=O)[C@H](Cc1ccccc1)NC(=O)[C@H](CC1CCCCC1)NC(=O)[C@H](CCCCN)NC(=O)[C@H](Cc1ccccc1)NC(=O)[C@H](Cc1c[nH]c2ccccc12)NC(=O)[C@H](CC(=O)O)NC(C)=O)C(C)C)C(=O)N[C@@H](Cc1ccccc1)C(N)=O [Compound 18] (Ac-DWFK[Cha]FYDKVAEKFKE[Nle]F-NH2) | – | – | solubility of 18 A variants (in words) [1]: completely insoluble
HAEGTFTS[CHA]VSSYLEGQAAK[NAC]FIAWLVKGR [Compound 9] | – | – | First Run [2]: 0; Second Run [2]: 0; Ultracentrifugation [2]: 0

Second part, led by results:

PEG1/2 ([1]; 18A variants, Figure 3b) | Second Run [1, 3] | Compound | further results
1.618 | 0.923 | CCCC[C@H](NC(=O)[C@@H](NC(=O)[C@H](CCCCN)NC(=O)[C@H](CC(=O)O)NC(=O)[C@H](Cc1ccc(O)cc1)NC(=O)[C@H](Cc1ccccc1)NC(=O)[C@H](C)NC(=O)[C@H](CCCCN)NC(=O)[C@H](Cc1ccccc1)NC(=O)[C@H](Cc1c[nH]c2ccccc12)NC(=O)[C@H](CC(=O)O)NC(C)=O)C(C)C)C(=O)N[C@@H](CCC(=O)O)C(=O)N[C@@H](CCCCN)C(=O)N[C@@H](Cc1ccccc1)C(=O)N[C@@H](CCCCN)C(=O)N[C@@H](CCC(=O)O)C(=O)N[C@@H](C)C(=O)N[C@@H](Cc1ccccc1)C(N)=O [Compound 13] (Ac-DWFKAFYDKV[Nle]EKFKEAF-NH2) | –
1.287 | 0.527 | CC(=O)NCCCC[C@H](NC(=O)[C@@H](NC(=O)[C@H](CCCCN)NC(=O)[C@H](CC(=O)O)NC(=O)[C@H](Cc1ccc(O)cc1)NC(=O)[C@H](Cc1ccccc1)NC(=O)[C@H](C)NC(=O)[C@H](CCCCN)NC(=O)[C@H](Cc1ccccc1)NC(=O)[C@H](Cc1c[nH]c2ccccc12)NC(=O)[C@H](CC(=O)O)NC(C)=O)C(C)C)C(=O)N[C@@H](CCC(=O)O)C(=O)N[C@@H](CCCCN)C(=O)N[C@@H](Cc1ccccc1)C(=O)N[C@@H](CCCCN)C(=O)N[C@@H](CCC(=O)O)C(=O)N[C@@H](C)C(=O)N[C@@H](Cc1ccccc1)C(N)=O [Compound 14] (Ac-DWFKAFYDKVK(Ac)EKFKEAF-NH2) | –
1.783 | 1.487 | CC(=O)N[C@@H](CC(=O)O)C(=O)N[C@@H](Cc1c[nH]c2ccccc12)C(=O)N[C@@H](Cc1ccccc1)C(=O)N[C@@H](CCCCN)C(=O)N[C@@H](C)C(=O)N[C@@H](Cc1ccccc1)C(=O)N[C@@H](Cc1ccc(O)cc1)C(=O)N[C@@H](CC(=O)O)C(=O)N[C@@H](CCCCN)C(=O)N[C@H](C(=O)NC(C)(C)C(=O)N[C@@H](CCC(=O)O)C(=O)N[C@@H](CCCCN)C(=O)N[C@@H](Cc1ccccc1)C(=O)N[C@@H](CCCCN)C(=O)N[C@@H](CCC(=O)O)C(=O)N[C@@H](C)C(=O)N[C@@H](Cc1ccccc1)C(N)=O)C(C)C [Compound 15] (Ac-DWFKAFYDKV[Aib]EKFKEAF-NH2) | –
1.901 | 1.251 | CC(=O)N[C@@H](CC(=O)O)C(=O)N[C@@H](Cc1c[nH]c2ccccc12)C(=O)N[C@@H](Cc1ccccc1)C(=O)N[C@@H](CCCCN)C(=O)N[C@@H](C)C(=O)N[C@@H](Cc1ccccc1)C(=O)N[C@@H](Cc1ccc(O)cc1)C(=O)N[C@@H](CC(=O)O)C(=O)N[C@@H](CCCCN)C(=O)N[C@H](C(=O)N[C@@H](CCCNC(N)=O)C(=O)N[C@@H](CCC(=O)O)C(=O)N[C@@H](CCCCN)C(=O)N[C@@H](Cc1ccccc1)C(=O)N[C@@H](CCCCN)C(=O)N[C@@H](CCC(=O)O)C(=O)N[C@@H](C)C(=O)N[C@@H](Cc1ccccc1)C(N)=O)C(C)C [Compound 16] (Ac-DWFKAFYDKV[Cit]EKFKEAF-NH2) | –
